From ChEMBL document CHEMBL1201862, “PubChem BioAssay data set” (2004)
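Exposure lasted 48 hours, with cells grown in 96-well plates and compounds tested at five concentrations. GI50: concentration for 50% inhibition of growth.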 Active and inactive are the calls of the source. No stated cut-off is given here; in the data, active = GI50 up to about 1.1 µM and inactive = higher.

Legend:
Test in all cases: growth of human tumour cells (NCI), 48 h
NCI-H460 = system: NCI-H460
CCRF-CEM = system: CCRF-CEM
HL-60 = system: HL-60
U-251 = system: U-251
HCC 2998 = system: HCC 2998
CAKI-1 = system: CAKI-1
SN12C = system: SN12C
HCT-15 = system: HCT-15
ACHN = system: ACHN
SK-MEL-2 = system: SK-MEL-2
NCI-H522 = system: NCI-H522
NCI/ADR-RES = system: NCI/ADR-RES
RPMI-8226 = system: RPMI-8226
OVCAR-5 = system: OVCAR-5
SNB-75 = system: SNB-75
TK-10 = system: TK-10
HCT-116 = system: HCT-116
UACC-62 = system: UACC-62
SK-OV-3 = system: SK-OV-3
HT-29 = system: HT-29

| SMILES | GI50 (NCI-H460) | GI50 (CCRF-CEM) | GI50 (HL-60) | GI50 (U-251) | GI50 (HCC 2998) | GI50 (CAKI-1) | GI50 (SN12C) | GI50 (HCT-15) [µM] | GI50 (ACHN) | GI50 (SK-MEL-2) | GI50 (NCI-H522) | GI50 (NCI/ADR-RES) | GI50 (RPMI-8226) | GI50 (OVCAR-5) | GI50 (SNB-75) | GI50 (TK-10) | GI50 (HCT-116) | GI50 (UACC-62) | GI50 (SK-OV-3) | GI50 (HT-29) |
| --- | --- | --- | --- | --- | --- | --- | --- | --- | --- | --- | --- | --- | --- | --- | --- | --- | --- | --- | --- | --- |
| CCOP(=O)(COCCn1nc(Br)c(=O)[nH]c1=O)OCC | > 100 µM (inactive) | > 100 µM (inactive) | > 100 µM (inactive) | > 100 µM (inactive) | > 100 µM (inactive) | > 100 µM (inactive) | > 100 µM (inactive) | > 100 | > 100 µM (inactive) | > 100 µM (inactive) | > 100 µM (inactive) | > 100 µM (inactive) | > 100 µM (inactive) | > 100 µM (inactive) | > 100 µM (inactive) |  |  |  |  |  |
| O=S(=O)(c1ccccc1)C1CC(c2nc3ccccc3[nH]2)=NO1 (stereo unspecified) | 50.1 µM (inactive) | 21.8 µM (inactive) |  | > 100 µM (inactive) | > 100 µM (inactive) | 97.7 µM (inactive) | > 100 µM (inactive) | 51.3 | > 100 µM (inactive) | > 100 µM (inactive) | 28.6 µM (inactive) | > 100 µM (inactive) | 28.1 µM (inactive) | > 100 µM (inactive) | > 100 µM (inactive) | 74.8 µM (inactive) | 52.6 µM (inactive) | > 100 µM (inactive) | > 100 µM (inactive) | > 100 µM (inactive) |
| O=C(O)c1cn2c3c(cc(N4CCN(CCO)CC4)cc3c1=O)SCC2 | > 95.7 µM (inactive) | 48.8 µM (inactive) | > 100 µM (inactive) | > 95.9 µM (inactive) | 33 µM (inactive) | > 100 µM (inactive) | 47.1 µM (inactive) | > 100 |  | 48.4 µM (inactive) | 26.5 µM (inactive) | > 89.7 µM (inactive) | > 100 µM (inactive) | > 75.5 µM (inactive) | 30.7 µM (inactive) |  | > 100 µM (inactive) | > 78.2 µM (inactive) | > 100 µM (inactive) | > 100 µM (inactive) |
| C=C1C(=O)OC2/C=C(\C(=O)O)CC/C=C(\C)CC(OC(=O)/C=C(\C)CC)C12 (stereo unspecified) | 16.1 µM (inactive) | > 100 µM (inactive) | 72.6 µM (inactive) | 17 µM (inactive) | 18.6 µM (inactive) | 19.3 µM (inactive) | 17 µM (inactive) | 14.6 | 17 µM (inactive) | 14.4 µM (inactive) | 17.8 µM (inactive) |  | 3.45 µM (inactive) | 13.5 µM (inactive) | 19.5 µM (inactive) | 34.6 µM (inactive) | 12.9 µM (inactive) | 14.3 µM (inactive) | 20.3 µM (inactive) | 15.7 µM (inactive) |
| OC1CCSc2ccccc21 (stereo unspecified) | > 100 µM (inactive) | > 100 µM (inactive) |  | > 100 µM (inactive) | > 100 µM (inactive) | > 100 µM (inactive) | > 100 µM (inactive) | > 100 | > 100 µM (inactive) | > 100 µM (inactive) | > 100 µM (inactive) |  | > 100 µM (inactive) | > 100 µM (inactive) |  |  | > 100 µM (inactive) | > 100 µM (inactive) | > 100 µM (inactive) | > 100 µM (inactive) |
| COc1cc(C2S/C(=C/c3ccccc3)C(=O)N2c2cccc(NC(C)=O)c2)cc(OC)c1OC (stereo unspecified) |  | 40.2 µM (inactive) |  | 17.6 µM (inactive) | 29.6 µM (inactive) | 25.9 µM (inactive) | 45.2 µM (inactive) | 30.5 | 37.2 µM (inactive) |  | 13.5 µM (inactive) | 27.9 µM (inactive) |  | 65.8 µM (inactive) | 4.02 µM (inactive) | 80.5 µM (inactive) | 17.2 µM (inactive) | 29.1 µM (inactive) | 56 µM (inactive) | 21.1 µM (inactive) |
| OC(c1cccnc1Cl)c1nc2ccccc2c2ccnc(Cl)c12 (stereo unspecified) | 4.4 µM (inactive) |  | 2.77 µM (inactive) | 4.18 µM (inactive) |  | 6.25 µM (inactive) | 3.6 µM (inactive) | 3.04 | 9.91 µM (inactive) | 4.94 µM (inactive) | 1.05 µM (active) | 2.88 µM (inactive) | 2.34 µM (inactive) | 9.51 µM (inactive) | 15 µM (inactive) | 24.3 µM (inactive) | 3.35 µM (inactive) | 2.06 µM (inactive) | 8.38 µM (inactive) | 4.6 µM (inactive) |
| Cc1ccc(C2=C(C#N)C(N)OC3=C2COc2ccccc23)cc1 (stereo unspecified) | 43.5 µM (inactive) | 22.9 µM (inactive) | > 100 µM (inactive) | 19.5 µM (inactive) | 41.6 µM (inactive) |  | 18.6 µM (inactive) | > 100 | 35.2 µM (inactive) | 26.6 µM (inactive) |  | 30.3 µM (inactive) | > 100 µM (inactive) | 2.4 µM (inactive) |  | 17.2 µM (inactive) | 31.9 µM (inactive) | 78 µM (inactive) | 25.9 µM (inactive) | 4.85 µM (inactive) |
| NNC(N)Nc1ccccc1 (stereo unspecified) | > 100 µM (inactive) | > 100 µM (inactive) | > 100 µM (inactive) | > 100 µM (inactive) | > 100 µM (inactive) | > 100 µM (inactive) | > 100 µM (inactive) | > 100 | > 100 µM (inactive) | > 100 µM (inactive) | > 100 µM (inactive) | > 100 µM (inactive) |  | > 100 µM (inactive) |  | > 100 µM (inactive) |  | > 100 µM (inactive) | > 100 µM (inactive) | > 100 µM (inactive) |
| COc1cc(O)c2c(c1)C(=O)c1cc3c(c(O)c1C2=O)C(OC1OC(C)C(O)C(O)C1OC)C(OC)C(C)(O)C3=O (stereo unspecified) | 1.53 µM (inactive) |  |  | 3.39 µM (inactive) | 4.23 µM (inactive) |  | 1.9 µM (inactive) | 2.32 |  | 3.65 µM (inactive) | 1.93 µM (inactive) | 3.48 µM (inactive) |  | 4.43 µM (inactive) | 3.57 µM (inactive) |  |  | 1.38 µM (inactive) | 3.2 µM (inactive) | 1.17 µM (inactive) |
| CN1C[C@H]2[C@@H](C1=O)[C@H](c1ccc([N+](=O)[O-])cc1)ON2C | > 100 µM (inactive) | > 100 µM (inactive) | > 100 µM (inactive) | > 100 µM (inactive) | > 100 µM (inactive) | > 100 µM (inactive) | > 100 µM (inactive) | > 100 | > 100 µM (inactive) | > 100 µM (inactive) | > 100 µM (inactive) | > 100 µM (inactive) | > 100 µM (inactive) | > 100 µM (inactive) |  | > 100 µM (inactive) | > 100 µM (inactive) |  | > 100 µM (inactive) | > 100 µM (inactive) |
| CC(=O)OC[C@H]1[C@@H]2C(CC[C@]13CO3)OC(=O)CC(C)[C@]2(C)CCc1ccoc1 (stereo partly specified) | > 100 µM (inactive) | > 100 µM (inactive) | > 100 µM (inactive) | > 100 µM (inactive) | > 100 µM (inactive) | > 100 µM (inactive) | > 100 µM (inactive) | > 100 | > 100 µM (inactive) |  | > 100 µM (inactive) | > 100 µM (inactive) |  | > 100 µM (inactive) |  | > 100 µM (inactive) | > 100 µM (inactive) | > 100 µM (inactive) | > 100 µM (inactive) | > 100 µM (inactive) |
| Cc1ccc(C)c(NC(=O)C(=O)C(C(=O)c2ccc3ccccc3c2)C2OC(=O)c3ccccc32)c1 (stereo unspecified) | 11.6 µM (inactive) | 10.9 µM (inactive) | 17.1 µM (inactive) | 4.19 µM (inactive) | 15 µM (inactive) | 20 µM (inactive) | 15.7 µM (inactive) | 21.5 | 26.5 µM (inactive) | 13.6 µM (inactive) | 10 µM (inactive) |  | 22.2 µM (inactive) | 14.9 µM (inactive) | 12.4 µM (inactive) | 19.2 µM (inactive) | 12.3 µM (inactive) | 14.6 µM (inactive) | 14.3 µM (inactive) | 28.1 µM (inactive) |
| O=Cc1c(Cn2ccnc2)c2cc([N+](=O)[O-])ccc2n1Cc1ccccc1 | 37.3 µM (inactive) | 63.5 µM (inactive) |  | 37.3 µM (inactive) | > 100 µM (inactive) | > 68.4 µM (inactive) | > 86.5 µM (inactive) | > 100 |  | > 100 µM (inactive) | > 100 µM (inactive) | > 61.8 µM (inactive) | > 100 µM (inactive) | > 90.6 µM (inactive) | > 100 µM (inactive) |  | 52 µM (inactive) | > 100 µM (inactive) | > 100 µM (inactive) | > 100 µM (inactive) |
| Cc1cccc(C(O)c2ccccn2)c1O (stereo unspecified) | > 100 µM (inactive) | > 100 µM (inactive) | > 100 µM (inactive) | > 100 µM (inactive) | > 100 µM (inactive) | > 100 µM (inactive) | > 100 µM (inactive) | 83.2 | > 100 µM (inactive) |  | > 100 µM (inactive) | > 100 µM (inactive) | > 100 µM (inactive) | > 100 µM (inactive) | > 100 µM (inactive) | > 100 µM (inactive) | > 100 µM (inactive) | 74.6 µM (inactive) |  | > 100 µM (inactive) |
| O=C(Nc1ccc(Cl)cc1)C(=O)C(C(=O)c1ccccc1-c1ccccc1)C1OC(=O)c2ccccc21 (stereo unspecified) | 19.4 µM (inactive) | 18.2 µM (inactive) | 18.5 µM (inactive) | 14 µM (inactive) | 19.4 µM (inactive) | 24 µM (inactive) | 19.3 µM (inactive) | 17.6 | 32.4 µM (inactive) | 20.8 µM (inactive) | 14.2 µM (inactive) |  | 26.9 µM (inactive) | 28.3 µM (inactive) | 31.4 µM (inactive) | 21.4 µM (inactive) | 18.2 µM (inactive) | 15.9 µM (inactive) | 27.6 µM (inactive) | 23.1 µM (inactive) |
